Assay results published in patent publication US20050244983A1, “Method for measuring antioxidant status” (The Western Australian Centre for Pathology and Medical …, priority 2002, published 2005).
Values joined by “and” are separate entries in the source; they are usually repeats but may differ in a detail not shown here. Identical values can stand only once.

Experiment: AIOR assay (antioxidant inhibition of radical assay): uroporphyrin I fluorescence decay with AAPH, area under curve against Trolox standard curve
Type: biochemical
Method: The stock phosphate buffer (0.75 M, pH 7.0) was prepared by mixing 61.1:38.9 (v/v) of a 0.75 M K2HPO4 and a 0.75 M NaH2PO4 solution. The working phosphate buffer 75 mM, pH 7.0 was prepared by a 1:9 (v/v) dilution of the 0.75 M stock phosphate buffer.
AAPH (583 mM) was prepared by dissolving completely 0.474 g of AAPH in 3 mL of 75 mM, pH 7.0 phosphate buffer. This solution was prepared freshly before each run.
Uroporphyrin stock solution (225 μM) was prepared by dissolving 1.2 mg of uroporphyrin I dihydrochloride in 5.9 mL of phosphate buffer (75 mM, pH 7.0). This solution was very stable for many months by storing in the dark at 4° C. A secondary uroporphyrin stock solution for routine use was prepared by a 1:50 (v/v) dilution of the stock uroporphyrin solution with phosphate buffer (75 mM, pH 7.0). This secondary stock solution was stable for several months in the dark at 4° C. A working uroporphyrin solution for daily use was prepared by a 1:750 (v/v) dilution of the secondary uroporphyrin solution with phosphate buffer (75 mM, pH 7.0).
To enable complete solubility of both hydrophobic and hydrophilic compounds in the sample, a surfactant Brij 35™ was added to the working uroporphyrin solution in the quantity of 0.1% of the reagent.
Trolox was used as an antioxidant standard to compare the antioxidant status of various inorganic and organic matter. A stock Trolox standard solution (5.0 mM) was prepared by dissolving Trolox 35 (250 mg) in 200 mL of phosphate buffer (75 mM, pH 7.0). Working standards of Trolox were prepared by diluting the stock Trolox standard to 0.5, 1.0 and 2.0 mM with the same buffer.
Sample/blank/standard (1 μL), and working uroporphyrin solution (0.300 uM) with Brij™ (136 μL) were added to the wells of a 96-well microplate. Blank, standards or diluted samples were added first into the well, followed by working uroporphyrin solution with Brij™. The contents of each well was mixed using a plateshaker for 1-2 minutes. Freshly prepared AAPH solution […] (22 μL) was then added. This procedure provided a sample to AAPH to uroporphyrin ratio of (1:22:136). The contents of the wells were then mixed again for exactly 2 minutes before acquisition of data with the Varian Cary Eclipse fluorescence spectrophotometer. A sample to reagent ratio of (2:30:186) was also used to further improve the precision of the assay.
The Varian Cary Eclipse fluorescence spectrophotometer settings were as follows. • Excitation λ=397 nm; Emission λ=615 nm. • Excitation Slit=20 nm; Emission Slit=10 nm. • Ave Time=0.2 sec. • Run Time=180 minutes. • Y (min-max)=0-1000. • Excitation Filter: Auto. • Emission Filter: Open. • PMT: Variable (Choice of low, medium or high).
The method takes the free radical action to completion in 180 minutes. The Varian Cary Eclipse fluorescence spectrophotometer has the ability to achieve high throughput of 96 samples in 180 minutes with the 96-wellplate format. […] This invention provides both a method and reagent, which can accurately, easily, economically, and quickly analyze antioxidant status.
The results of the analysis were normalized by Varian Cary Eclipse software and calculated by GraphPad Prism 4.0 software (GraphPad Software, Inc., San Diego Calif., 2003).

O=c1c(O)c(-c2ccc(O)c(O)c2)oc2cc(O)cc(O)c12 [Quercetin]
Antioxidant Status (mM) Trolox Equivalent Calculated 1/16 Dilution (calculated from the observed ¼ dilution value): 1.10 mM | Antioxidant Status Trolox Equivalent (mM) of the observed individual ¼ Dilution (individual polyphenol, ¼ dilution, n=9): 4.41 ± 0.44 mM | Antioxidant Status Trolox Equivalent (mM ± SD) (polyphenol 0.25 mM in ethanol): 1.82 ± 0.13 mM | Antioxidant Status Trolox Equivalent (mM ± SD) (polyphenol 0.5 mM in ethanol): 4.58 ± 0.24 mM

O=c1[nH]c(=O)c2[nH]c(=O)[nH]c2[nH]1 [Uric Acid, Uric acid]
Antioxidant Status in Trolox Equivalent (mM ± SD) (uric acid 424 μM in phosphate buffer, n=12): 0.6 ± 0.1 mM | Antioxidant Status in Trolox Equivalent (mM ± SD) (uric acid 424 μM in phosphate buffer, n=12, listed as uric acid): 0.6 mM | Antioxidant Status in Trolox Equivalent (mM ± SD) (uric acid 848 μM in phosphate buffer, n=12): 1.2 ± 0.1 mM | Antioxidant Status in Trolox Equivalent (mM ± SD) (uric acid 848 μM in phosphate buffer, n=12, listed as uric acid): 1.2 mM | Antioxidant Status in Trolox Equivalent (mM ± SD) (uric acid 1696 μM in phosphate buffer, n=12): 2.4 ± 0.1 mM | Antioxidant Status in Trolox Equivalent (mM ± SD) (uric acid 1696 μM in phosphate buffer, n=12, listed as uric acid): 2.4 mM | estimation of mean antioxidant status, Trolox equivalent (uric acid at physiological upper range for female, 340 μmol/L): 0.48 mM | estimation of mean antioxidant status, Trolox equivalent (uric acid at physiological upper range for male, 420 μmol/L): 0.59 mM

O=C1O[C@H]([C@@H](O)CO)C(O)=C1O [Vitamin C]
Antioxidant Status in Trolox Equivalent (mM ± SD) (vitamin C 2.65 mM in deionized water, n=12): 0.9 ± 0.1 mM | Antioxidant Status in Trolox Equivalent (mM ± SD) (vitamin C 2.65 mM in deionized water, n=12, listed as vitamin C): 0.9 mM | Antioxidant Status in Trolox Equivalent (mM ± SD) (vitamin C 5.30 mM in deionized water, n=12): 1.8 ± 0.1 mM | Antioxidant Status in Trolox Equivalent (mM ± SD) (vitamin C 5.30 mM in deionized water, n=12, listed as vitamin C): 1.8 mM | Antioxidant Status in Trolox Equivalent (mM ± SD) (vitamin C 10.6 mM in deionized water, outside standard curve range, n=12): 4.0 ± 0.2 mM | Antioxidant Status in Trolox Equivalent (mM ± SD) (vitamin C 10.6 mM in deionized water, outside standard curve range, n=12, listed as vitamin C): 4.0 mM

Cn1c(=O)c2c(ncn2C)n(C)c1=O [caffeine]
mean antioxidant status in Trolox equivalent (caffeine 9.6 mmol/L in phosphate buffer): 0.2 mM

(±) catechin
Antioxidant Status Trolox Equivalent (mM ± SD) (polyphenol 0.25 mM in ethanol): 1.60 ± 0.07 mM | Antioxidant Status Trolox Equivalent (mM ± SD) (polyphenol 0.5 mM in ethanol): 3.47 ± 0.19 mM

Albumin
Antioxidant Capacity in Trolox Equivalent (mM ± SD) (albumin 20 g/L in phosphate buffer, n=12): 1.2 mM and 1.2 ± 0.1 mM | Antioxidant Capacity in Trolox Equivalent (mM ± SD) (albumin 40 g/L in phosphate buffer, n=12): 2.4 mM and 2.4 ± 0.1 mM

Vitamin A
Antioxidant Status in Trolox Equivalent (mM ± SD) (vitamin A 1940 μM in isopropanol, n=10): 0.6 ± 0.1 mM | Antioxidant Status in Trolox Equivalent (mM ± SD) (vitamin A 1940 μM in isopropanol, n=10, listed as vitamin A): 0.56 mM | Antioxidant Status in Trolox Equivalent (mM ± SD) (vitamin A 3880 μM in isopropanol, n=10): 1.1 ± 0.1 mM | Antioxidant Status in Trolox Equivalent (mM ± SD) (vitamin A 3880 μM in isopropanol, n=10, listed as vitamin A): 1.11 mM | Antioxidant Status in Trolox Equivalent (mM ± SD) (vitamin A 5820 μM in isopropanol, n=10): 1.4 ± 0.1 mM | Antioxidant Status in Trolox Equivalent (mM ± SD) (vitamin A 5820 μM in isopropanol, n=10, listed as vitamin A): 1.41 mM

Vitamin E
Antioxidant Status in Trolox Equivalent (mM ± SD) (vitamin E 952 μM in isopropanol, n=10): 0.4 ± 0.1 mM | Antioxidant Status in Trolox Equivalent (mM ± SD) (vitamin E 952 μM in isopropanol, n=10, listed as vitamin E): 0.4 mM | Antioxidant Status in Trolox Equivalent (mM ± SD) (vitamin E 1905 μM in isopropanol, n=10): 1.1 ± 0.1 mM | Antioxidant Status in Trolox Equivalent (mM ± SD) (vitamin E 1905 μM in isopropanol, n=10, listed as vitamin E): 1.1 mM | Antioxidant Status in Trolox Equivalent (mM ± SD) (vitamin E 3810 μM in isopropanol, n=10): 2.7 ± 0.1 mM | Antioxidant Status in Trolox Equivalent (mM ± SD) (vitamin E 3810 μM in isopropanol, n=10, listed as vitamin E): 2.7 mM
